The record followed here is US9522907B2, “Anticancer agent and process for the preparation thereof” (COUNCIL OF SCIENTIFIC & INDUSTRIAL RESEARCH, priority 2014, dated 2016).

Common to all, as to assay: cells
Holding throughout (format): cell-based

One assay relates to Renal cancer cell lines. Conditions: Homo sapiens. An excerpt: (§1) The mean graph midpoint values of Log10 GI50 as well as Log10 LC50 for the compounds 2i, 5i and Hoechst 33258 (NSC-322921) is listed in Table 2.
(§2) Each cancer type represents the average of six to eight different cancer cell lines.

Assay [1] deals with Non-small-cell lung cancer cell lines. Conditions: Homo sapiens; Non-small-cell lung; average of cell lines of the cancer type; read-out: Log10 GI50 mean graph midpoint (MG_MID) (converted).
Excerpt: as §1, §2

Assay [2] concerns Melanoma cancer cell lines. Conditions: Homo sapiens; Melanoma; average of cell lines of the cancer type; read-out: Log10 GI50 mean graph midpoint (MG_MID) (converted).
Excerpt: as §1, §2

The test system of the next assay is Breast cancer cell lines. Conditions: Homo sapiens.
Excerpt: as §1, §2

Assay [3] deals with Prostate cancer cell lines. Conditions: Homo sapiens.
Excerpt: as §1, §2

In a further assay the test system is CNS cancer cell lines. Conditions: Homo sapiens.
Excerpt: as §1, §2

Assay [4] has as its system Leukemia cancer cell lines. Conditions: Homo sapiens; Leukemia; average of cell lines of the cancer type; read-out: Log10 GI50 mean graph midpoint (MG_MID) (converted).
Excerpt: as §1, §2

Another assay deals with Colon cancer cell lines. Conditions: Homo sapiens; Colon; average of cell lines of the cancer type; read-out: Log10 GI50 mean graph midpoint (MG_MID) (converted).
Excerpt: as §1, §2

For assay [5], the system named is Ovarian cancer cell lines. Conditions: Homo sapiens.
Excerpt: as §1, §2

The mark [6] stands for this setting: read-out: Log10 LC50 mean graph midpoint (MG_MID) (converted).

The GI50 is the concentration that inhibits growth by half. In the case of `CN1CCN(c2ccc3nc(-c4ccc5nc(-c6ccc(O)cc6)[nH]c5c4)[nH]c3c2)CC1` [Hoechst 33258, reference compound], the CC50 is 1260 µM with Renal cancer cell lines (setting [6]); 1450 µM in the assay with Breast cancer cell lines (setting [6]); 1410 µM in assay [3] (setting [6]); 1320 µM in the assay with CNS cancer cell lines (setting [6]); 1200 µM in [5] (setting [6]). The concentration for 50% growth inhibition (GI50) in the assay on Renal cancer cell lines (Renal, average of cell lines of the cancer type, read-out: Log10 GI50 mean graph midpoint (MG_MID) (converted)) was 166 µM; in assay [1], 115 µM; in assay [2], 25.1 µM; in the assay on Breast cancer cell lines (Breast, average of cell lines of the cancer type, read-out: Log10 GI50 mean graph midpoint (MG_MID) (converted)), 21.4 µM; in assay [3] (Prostate, average of cell lines of the cancer type, read-out: Log10 GI50 mean graph midpoint (MG_MID) (converted)) it was 631 µM; in the assay on CNS cancer cell lines (CNS, average of cell lines of the cancer type, read-out: Log10 GI50 mean graph midpoint (MG_MID) (converted)) it was 132 µM. The GI50 in [4] is 18.6 µM; with Colon cancer cell lines, 79.4 µM; in assay [5] (Ovarian, average of cell lines of the cancer type, read-out: Log10 GI50 mean graph midpoint (MG_MID) (converted)), 195 µM.
